“And” between values parts separate entries of the source, which are not always exact repeats. Identical values can stand only once. Like-named read-outs stand apart in the source and are kept apart here.
Experiments:
Cph001 = experiment: Coupled enzyme assay and Michaelis-Menten kinetics of Cph001; type: biochemical, Streptosporangium roseum; details: for initial velocity, Figure 3c ii, Triplicate: 2 mM GTP; for initial velocity, Figure 3c i, Triplicate: 2 mM ATP; for absorbance at 340 nm, Average of triplicate: 2 mM substrate + ATP
Method: The phosphorylation reaction was measured by a coupled enzyme assay as following. […] The reactions were mixed well in a final volume of 200 μL in 96-well plates. The Cph001 activity was assayed by determining the oxidation of NADH at 340 nm. The reaction buffer and enzyme concentration of the Cph reaction was followed by previous study. The 340 nm absorbance changes were detected at 30 °C for every 1 min at a time in 15 min on an EPOCH Microplate Reader (BioTek). All reactions were carried out in triplicate.
The initial velocity data were plotted against substrate concentrations and fit the Michaelis-Menten equation. The Km and Vmax values were calculated based on the Michaelis-Menten equation. GraphPad Prism was used for statistical data analysis. All reactions were carried out in triplicate.

Cph001^D189N = experiment: Coupled enzyme assay of Cph001 variant; type: biochemical, Streptosporangium roseum; details: for absorbance at 340 nm, Average of triplicate: 2 mM substrate + ATP
Method: The phosphorylation reaction was measured by a coupled enzyme assay as following. The reaction 1, performed by 0.77 μM Cph001 with 2 mM antibiotic substrates (CMN IIA, CMN IIB, VIO, Kan, or Ery), was coupled to the reaction 2 and 3 in the presence of 4 U PK (pyruvate kinase from rabbit muscle, Merck), 4 U LDH (lactate dehydrogenase from rabbit muscle, Merck), 2 mM ATP or GTP, 2 mM PEP (phosphoenolpyruvate), 0.5 mM NADH, 40 mM KCl and 5 mM MgCl2 in a reaction buffer containing 400 mM NaCl and 20 mM Tris buffer at pH 8.0. The reactions were mixed well in a final volume of 200 μL in 96-well plates. The Cph001 activity was assayed by determining the oxidation of NADH at 340 nm. The reaction buffer and enzyme concentration of the Cph reaction was followed by previous study. The 340 nm absorbance changes were detected at 30 °C for every 1 min at a time in 15 min on an EPOCH Microplate Reader (BioTek). All reactions were carried out in triplicate.

Compound: N=C1NCCC([C@@H]2NC(=O)/C(=C/NC(N)=O)NC(=O)[C@H](CNC(=O)C[C@@H](N)CCCN)NC(=O)[C@H](CO)NC(=O)[C@@H](N)CNC2=O)N1 (stereo in doubt) [CMN IIA]
- initial velocity, Figure 3c ii, Triplicate (Cph001; 0.4 mM CMN IIA): 5.814e-5 and 4.992e-5 and 4.228e-5
- initial velocity, Figure 3c i, Triplicate (Cph001; 0.5 mM CMN IIA): 0.0001245 and 0.0001897 and 0.0001595
- initial velocity, Figure 3c ii, Triplicate (Cph001; 0.5 mM CMN IIA): 6.636e-5 and 7.341e-5 and 7.765e-5
- initial velocity, Figure 3c i, Triplicate (Cph001; 0.7 mM CMN IIA): 0.0002053 and 0.000222 and 0.0002263
- initial velocity, Figure 3c ii, Triplicate (Cph001; 0.7 mM CMN IIA): 9.514e-5 and 7.693e-5 and 6.952e-5
- initial velocity, Figure 3c i, Triplicate (Cph001; 1 mM CMN IIA): 0.0002288 and 0.0002649 and 0.0003551
- initial velocity, Figure 3c ii, Triplicate (Cph001; 1 mM CMN IIA): 0.0001233 and 0.000121 and 0.0001065
- initial velocity, Figure 3c i, Triplicate (Cph001; 2 mM CMN IIA): 0.0003304 and 0.0004291 and 0.0004233
- initial velocity, Figure 3c ii, Triplicate (Cph001; 2 mM CMN IIA): 0.0002014 and 0.0002003 and 0.0001825
- phosphorylation by Cph001 in couple enzyme assay (Cph001; 2 mM antibiotic substrate, ATP as phosphate donor, absorbance at 340 nm): decrease in absorbance at 340 nm
- initial velocity, Figure 3c i, Triplicate (Cph001; 4 mM CMN IIA): 0.0003294 and 0.0004402 and 0.000432
- initial velocity, Figure 3c ii, Triplicate (Cph001; 4 mM CMN IIA): 0.0001744 and 0.0002267 and 0.0002057
- initial velocity, Figure 3c i, Triplicate (Cph001; 6 mM CMN IIA): 0.0003263 and 0.0004514 and 0.0003777
- initial velocity, Figure 3c ii, Triplicate (Cph001; 6 mM CMN IIA): 0.0002402 and 0.000232 and 0.000183
- Km (Cph001; ATP as phosphate donor (2 mM), pseudo-first-order conditions, mean ± SEM, n = 3, read-out: apparent Michaelis constant (Km) of CMN IIA): 880 ± 200 µM
- Km (Cph001; ATP series, first manuscript version as quoted by Reviewer #1, read-out: measured Km of CMN IIA): 876 µM
- Km (Cph001; GTP series, first manuscript version as quoted by Reviewer #1, read-out: measured Km of CMN IIA): 1400 µM
- Km (Cph001; saturating GTP as phosphate donor (2 mM), mean ± SEM, n = 3, read-out: apparent Km of CMN IIA): 1400 ± 240 µM
- absorbance at 340 nm, Average of triplicate (Cph001; time 00:00:00): 1.495
- absorbance at 340 nm, Average of triplicate (Cph001; time 00:01:00): 1.277
- absorbance at 340 nm, Average of triplicate (Cph001; time 00:02:00): 0.9337
- absorbance at 340 nm, Average of triplicate (Cph001; time 00:03:00): 0.6673
- absorbance at 340 nm, Average of triplicate (Cph001; time 00:04:00): 0.5687
- absorbance at 340 nm, Average of triplicate (Cph001; time 00:05:00): 0.52
- absorbance at 340 nm, Average of triplicate (Cph001; time 00:06:00): 0.3975
- absorbance at 340 nm, Average of triplicate (Cph001; time 00:07:00): 0.2841
- absorbance at 340 nm, Average of triplicate (Cph001; time 00:08:00): 0.2044
- absorbance at 340 nm, Average of triplicate (Cph001; time 00:09:00): 0.1613
- absorbance at 340 nm, Average of triplicate (Cph001; time 00:10:00): 0.1364
- absorbance at 340 nm, Average of triplicate (Cph001; time 00:11:00): 0.1231
- absorbance at 340 nm, Average of triplicate (Cph001; time 00:12:00): 0.1177
- absorbance at 340 nm, Average of triplicate (Cph001; time 00:13:00): 0.1173
- absorbance at 340 nm, Average of triplicate (Cph001; time 00:14:00): 0.1173
- absorbance at 340 nm, Average of triplicate (Cph001; time 00:15:00): 0.1177
- phosphotransferase activity of variant (Cph001^D189N; CMN IIA + ATP): complete loss of phosphotransferase activity
- absorbance at 340 nm, Average of triplicate (Cph001^D189N; time 00:00:00): 1.495
- absorbance at 340 nm, Average of triplicate (Cph001^D189N; time 00:01:00): 1.553
- absorbance at 340 nm, Average of triplicate (Cph001^D189N; time 00:02:00): 1.591
- absorbance at 340 nm, Average of triplicate (Cph001^D189N; time 00:03:00): 1.622
- absorbance at 340 nm, Average of triplicate (Cph001^D189N; time 00:04:00): 1.655
- absorbance at 340 nm, Average of triplicate (Cph001^D189N; time 00:05:00): 1.685
- absorbance at 340 nm, Average of triplicate (Cph001^D189N; time 00:06:00): 1.709
- absorbance at 340 nm, Average of triplicate (Cph001^D189N; time 00:07:00): 1.733
- absorbance at 340 nm, Average of triplicate (Cph001^D189N; time 00:08:00): 1.755
- absorbance at 340 nm, Average of triplicate (Cph001^D189N; time 00:09:00): 1.775
- absorbance at 340 nm, Average of triplicate (Cph001^D189N; time 00:10:00): 1.791
- absorbance at 340 nm, Average of triplicate (Cph001^D189N; time 00:11:00): 1.804
- absorbance at 340 nm, Average of triplicate (Cph001^D189N; time 00:12:00): 1.814
- absorbance at 340 nm, Average of triplicate (Cph001^D189N; time 00:13:00): 1.823
- absorbance at 340 nm, Average of triplicate (Cph001^D189N; time 00:14:00): 1.83
- absorbance at 340 nm, Average of triplicate (Cph001^D189N; time 00:15:00): 1.791
